Data as given in the supplement of paper PMC10307832.

What was measured:
Test in all cases: relative viability (nuclei count vs DMSO), 5 days (fraction); higher = more cells survive
[1] = compound: C=C(c1ccc(C(=O)O)cc1)c1cc2c(cc1C)C(C)(C)CCC2(C)C [Bexarotene] + Cc1nc(NC(=O)N2CCC[C@H]2C(N)=O)sc1-c1ccnc(C(C)(C)C(F)(F)F)c1 [Alpelisib] (partner 2 µM)
In short: (§1)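 Dosing by pin tool came one day after lung cancer cell lines were seeded in 1536-well plates, using either one drug or a fixed anchor-drug dose plus five library-drug doses (not always all listed) in √10 steps. After 5 days, nuclei were counted on 4× images. Relative viability is treated-well nuclei count divided by vehicle-well nuclei count, and values are medians of duplicate plates.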

[2] = compound: C=C(c1ccc(C(=O)O)cc1)c1cc2c(cc1C)C(C)(C)CCC2(C)C [Bexarotene] + Cc1cc(Nc2cc(N3CCN(C)CC3)nc(Sc3ccc(NC(=O)C4CC4)cc3)n2)n[nH]1 [Tozasertib] (partner 0.1 µM)
In short: as §1

[3] = compound: C=C(c1ccc(C(=O)O)cc1)c1cc2c(cc1C)C(C)(C)CCC2(C)C [Bexarotene] + CCNC(=O)c1noc(-c2cc(C(C)C)c(O)cc2O)c1-c1ccc(CN2CCOCC2)cc1 [Luminespib] (partner 0.01 µM)
In short: as §1

[4] = compound: C=C(c1ccc(C(=O)O)cc1)c1cc2c(cc1C)C(C)(C)CCC2(C)C [Bexarotene] + Cc1nc(Nc2ncc(C(=O)Nc3c(C)cccc3Cl)s2)cc(N2CCN(CCO)CC2)n1 [Dasatinib] (partner 0.075 µM)
In short: as §1

Row | Cell Line | relative viability ([1]; first compound 0.08 µM) | relative viability ([1]; first compound 0.253 µM) | relative viability ([1]; first compound 0.8 µM) | relative viability ([1]; first compound 2.53 µM) | relative viability ([1]; first compound 8 µM) | relative viability ([2]; first compound 0.08 µM) | relative viability ([2]; first compound 0.253 µM) | relative viability ([2]; first compound 0.8 µM) | relative viability ([2]; first compound 2.53 µM) | relative viability ([2]; first compound 8 µM) | relative viability ([3]; first compound 0.08 µM) | relative viability ([3]; first compound 0.253 µM) | relative viability ([3]; first compound 0.8 µM) | relative viability ([3]; first compound 2.53 µM) | relative viability ([3]; first compound 8 µM) | relative viability ([4]; first compound 0.08 µM) | relative viability ([4]; first compound 0.253 µM) | relative viability ([4]; first compound 0.8 µM) | relative viability ([4]; first compound 2.53 µM) | relative viability ([4]; first compound 8 µM)
1 | 201T | 1.02 | 0.991 | 0.941 | 0.916 | 0.909 | 0.926 | 0.86 | 0.891 | 0.92 | 0.808 | 1 | 1.04 | 1.01 | 0.985 | 0.881 | 0.584 | 0.569 | 0.54 | 0.602 | 0.565
2 | A-427 | 1.08 | 1.02 | 0.89 | 0.89 | 0.926 | 0.203 | 0.202 | 0.193 | 0.202 | 0.183 | 1.05 | 0.94 | 0.999 | 1.1 | 0.948 | 0.726 | 0.614 | 0.611 | 0.627 | 0.684
3 | ABC-1 | 0.714 | 0.892 | 0.949 | 0.953 | 0.87 | 0.19 | 0.175 | 0.21 | 0.197 | 0.196 | 0.591 | 0.654 | 0.597 | 0.576 | 0.677 | 0.521 | 0.715 | 0.635 | 0.445 | 0.659
4 | BEN | 1.03 | 0.962 | 0.898 | 0.836 | 0.893 | 0.462 | 0.475 | 0.499 | 0.444 | 0.493 | 0.336 | 0.247 | 0.409 | 0.078 | 0.252 | 0.295 | 0.3 | 0.326 | 0.271 | 0.278
5 | CAL-12T | 1.29 | 1.3 | 1.33 | 1.17 | 0.94 | 0.264 | 0.309 | 0.227 | 0.276 | 0.244 | 0.218 | 0.224 | 0.419 | 0.322 | 0.297 | 0.296 | 0.327 | 0.332 | 0.302 | 0.271
6 | COR-L23 | 0.872 | 0.768 | 0.555 | 0.685 | 0.757 | 0.242 | 0.238 | 0.238 | 0.204 | 0.219 | 0.795 | 0.786 | 0.565 | 0.629 | 0.618 | 0.498 | 0.557 | 0.503 | 0.606 | 0.203
7 | COR-L 105 | 0.928 | 0.977 | 1.04 | 1.14 | 0.916 | 0.395 | 0.328 | 0.324 | 0.442 | 0.388 | 0.851 | 0.764 | 0.812 | 0.698 | 0.866 | 0.456 | 0.363 | 0.354 | 0.333 | 0.495
8 | Calu-6 | 1.12 | 0.917 | 0.934 | 0.958 | 1.05 |  |  |  |  |  |  |  |  |  |  |  |  |  |  | 
9 | ChaGo-K-1 |  |  |  |  |  | 0.259 | 0.234 | 0.264 | 0.223 | 0.223 | 0.54 | 0.604 | 0.6 | 0.686 | 0.693 | 0.568 | 0.604 | 0.638 | 0.661 | 0.593
10 | EKVX | 0.889 | 0.855 | 0.781 | 0.849 | 0.76 | 0.361 | 0.42 | 0.389 | 0.46 | 0.325 | 0.918 | 0.837 | 0.922 | 0.787 | 0.851 | 0.515 | 0.512 | 0.567 | 0.523 | 0.463
11 | EMC-BAC-2 | 0.748 | 0.735 | 0.705 | 0.73 | 0.719 | 0.311 | 0.315 | 0.274 | 0.277 | 0.283 | 1.28 | 1.23 | 1.23 | 1.12 | 1.11 | 0.328 | 0.316 | 0.294 | 0.309 | 0.334
12 | EPLC-272H | 0.9 | 0.97 | 0.884 | 0.901 | 0.911 | 0.278 | 0.262 | 0.307 | 0.286 | 0.341 | 0.304 | 0.332 | 0.252 | 0.303 | 0.258 | 0.388 | 0.312 | 0.369 | 0.352 | 0.383
13 | H3255 | 0.655 | 0.789 | 0.715 | 0.862 | 0.72 | 0.696 | 0.612 | 0.578 | 0.731 | 0.618 | 0.869 | 0.935 | 1.01 | 0.785 | 0.954 | 0.406 | 0.311 | 0.385 | 0.338 | 0.334
14 | HARA | 0.705 | 0.714 | 0.456 | 0.52 | 0.597 | 0.0906 | 0.0857 | 0.156 | 0.0749 | 0.0939 | 0.722 | 0.769 | 0.658 | 0.767 | 0.709 | 0.324 | 0.268 | 0.332 | 0.407 | 0.567
15 | HCC-15 | 0.91 | 0.849 | 0.845 | 0.816 | 0.788 | 0.357 | 0.531 | 0.415 | 0.44 | 0.34 | 0.192 | 0.314 | 0.321 | 0.353 | 0.231 | 0.695 | 0.741 | 0.648 | 0.647 | 0.683
16 | HCC-44 | 0.894 | 0.855 | 0.741 | 0.735 | 0.722 | 1.34 | 1.07 | 0.925 | 0.842 | 0.82 | 1.31 | 1.03 | 1.08 | 1.02 | 0.977 |  |  |  |  | 
17 | HCC-78 | 0.315 | 0.268 | 0.28 | 0.25 | 0.259 | 0.401 | 0.483 | 0.414 | 0.435 | 0.413 |  |  |  |  |  | 0.402 | 0.264 | 0.278 | 0.33 | 0.363
18 | HCC-366 | 0.529 | 0.408 | 0.411 | 0.489 | 0.463 | 0.169 | 0.118 | 0.119 | 0.0858 | 0.113 |  |  |  |  |  | 0.737 | 0.67 | 0.613 | 0.649 | 0.621
